Test results: PMC12455397 (Angewandte Chemie (International Ed. in English), 2025)

Key:
human Keap1 Kelch = human Keap1 Kelch (Homo sapiens, UniProt Q14145); assay: Fluorescence polarization (FP) competition assay with Cy5-Nrf2 peptide probe; settings: for Ki: ≥3 individual measurements; for ligand efficiency (LE): from FP Ki
[1] = system: Nrf2-regulated genes (AKR1B10, NQO1, TRXR1, HO-1) in HaCaT human keratinocytes; assay: HaCaT cell assay, Western Blotting of Nrf2-regulated proteins; assay type: cell-based; settings: HaCaT, 10 µM, 24 h
[2] = FP (Ki/nM), Table S2, mean ± SEM, NA: not active (measured up to 4 mM)
[3] = Ki (FP), mean, text and figures

Chain of human Keap1 Kelch (Q14145 321-609): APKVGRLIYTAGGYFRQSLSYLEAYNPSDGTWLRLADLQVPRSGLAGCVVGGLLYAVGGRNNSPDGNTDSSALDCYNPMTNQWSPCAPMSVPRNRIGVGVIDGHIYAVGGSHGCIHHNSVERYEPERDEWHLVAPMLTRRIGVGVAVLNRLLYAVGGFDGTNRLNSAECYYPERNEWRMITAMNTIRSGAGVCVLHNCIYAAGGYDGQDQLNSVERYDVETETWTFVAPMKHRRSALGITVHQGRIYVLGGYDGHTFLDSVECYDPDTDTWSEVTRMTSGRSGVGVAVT

SMILES	Ki (human Keap1 Kelch; [2])	Ki (human Keap1 Kelch; [3])	other results
Cc1cc2occc2cc1C(CC(=O)O)c1ccc2ccc(OCC(=O)NC3C=CCCC3)cc2c1 (stereo not shown) [Compound 46]	17.8 ± 3.4 nM	18 nM	
COc1ccc(C(CC(=O)O)c2ccc3ccc(OCC(=O)NC4CCCCCC4)cc3c2)cc1 (stereo not shown) [Compound 13]	31.6 ± 2.6 nM	32 nM	fold improvement in binding affinity (FP) over parent analogue (human Keap1 Kelch; 7 vs 4, 12 vs 7, 13 vs 12): 34 fold; ligand efficiency (LE) (human Keap1 Kelch): 0.29
Cc1cc2occc2cc1C(CC(=O)O)c1ccc2ccc(OCC(=O)NC3CCCCCC3)cc2c1 (stereo not shown) [Compound 26]	15.6 ± 2.6 nM	16 nM	
O=C(O)CC(c1ccc2c(c1)OC(F)(F)O2)c1ccc2ccc(OCC(=O)NC3CCCCCC3)cc2c1 (stereo not shown) [Compound 22]	33.8 ± 4.7 nM	34 nM	
O=C(O)CCc1cccc(OCC(=O)NC2CCCCC2)c1 [Compound 2]			activity in FP competition assay (human Keap1 Kelch): inactive
O=C(O)CC(c1ccc2c(c1)OCCO2)c1ccc2ccc(OCC(=O)NC3C=CCCC3)cc2c1 (stereo not shown) [Compound 43]	20.3 ± 2.1 nM	20 nM	
Cc1cc(C)c(NC(=O)COc2ccc3ccc(CCC(=O)O)cc3c2)c(C)c1 [Compound 10]	21300 ± 710 nM		Ki (human Keap1 Kelch; Ki (FP), mean): 21000 nM
Cc1cc2c(cc1C(CC(=O)O)c1ccc3ccc(OCC(=O)NC4C=CCCC4)cc3c1)OCCO2 (stereo not shown) [Compound 48]	19.2 ± 2.4 nM	19 nM	protein levels of Nrf2-regulated genes by WB [1]: strong bands in WB for all tested proteins
O=C(O)CC(c1ccc2c(c1)OCO2)c1ccc2ccc(OCC(=O)NC3CCCCCC3)cc2c1 (stereo not shown) [Compound 19]	23.2 ± 1.3 nM	23 nM	ligand efficiency (LE) (human Keap1 Kelch): 0.29
Cc1cc2c(cc1C(CC(=O)O)c1ccc3ccc(OCC(=O)NC4CCCCCC4)cc3c1)CCO2 (stereo not shown) [Compound 25]	18.8 ± 1.7 nM	19 nM	protein levels of Nrf2-regulated genes by WB [1]: strong bands in WB for all tested proteins
Cc1cc2c(cc1C(CC(=O)O)c1ccc3ccc(OCC(=O)NC4CCCCC4)cc3c1)OCCO2 (stereo not shown) [Compound 38]	14.9 ± 0.8 nM	15 nM	
Cc1cc2c(cc1C(CC(=O)O)c1ccc3ccc(OCC(=O)NC4C=CCCC4)cc3c1)CCO2 (stereo not shown) [Compound 45]	18.3 ± 2.4 nM	18 nM	
O=C(O)CC(c1ccc2c(c1)CCO2)c1ccc2ccc(OCC(=O)NC3CCCCCC3)cc2c1 (stereo not shown) [Compound 20]	35.5 ± 3.4 nM	36 nM	
Cc1cc2c(cc1C(CC(=O)O)c1ccc3ccc(OCC(=O)NC4C=CCCC4)cc3c1)OCO2 (stereo not shown) [Compound 44]		3.9 nM	protein levels of Nrf2-regulated genes by WB [1]: strong bands in WB for all tested proteins
O=C(O)CC(c1ccc2c(c1)OCCO2)c1ccc2ccc(OCC(=O)NC3CCCCCC3)cc2c1 (stereo not shown) [Compound 23]		15 nM	
O=C(COc1cccc(N2CCC(C(=O)O)CC2)c1)NC1CCCCC1 [Compound 3]	162000 ± 22000 nM		Ki (human Keap1 Kelch; Ki (FP), mean): 160000 nM; ligand efficiency (LE) (human Keap1 Kelch): 0.20
Cc1cc2c(cc1C(CC(=O)O)c1ccc3ccc(OCC(=O)NC4C=CCCC4)cc3c1)OC(F)(F)O2 (stereo not shown) [Compound 47]	16.1 ± 3.8 nM	16 nM	
Cc1cc2c(cc1C(CC(=O)O)c1ccc3ccc(OCC(=O)NC4CCCCC4)cc3c1)OC(F)(F)O2 (stereo not shown) [Compound 37]		7.1 nM	
O=C(O)CC(c1ccc2ccc(OCC(=O)NC3CCCCCC3)cc2c1)c1ccc2occc2c1 (stereo not shown) [Compound 21]	38.3 ± 1.6 nM	38 nM	
O=C(O)CC(c1ccc2c(c1)OCO2)c1ccc2ccc(OCC(=O)NC3CCCCC3)cc2c1 (stereo not shown) [Compound 29]	57.1 ± 4.8 nM	57 nM	
O=C(O)CC(c1ccc2c(c1)OCO2)c1ccc2ccc(OCC(=O)NC3C=CCCC3)cc2c1 (stereo not shown) [Compound 39]	24.5 ± 1.7 nM	25 nM	
O=C(O)CCc1ccc2ccc(OCC(=O)NC3CCOCC3)cc2c1 [Compound 5]	38300 ± 2900 nM		Ki (human Keap1 Kelch; Ki (FP), mean): 38000 nM
Cc1cc2c(cc1C(CC(=O)O)c1ccc3ccc(OCC(=O)NC4CCCCC4)cc3c1)CCO2 (stereo not shown) [Compound 35]	32.4 ± 1.3 nM	32 nM	
